From ChEMBL document CHEMBL1137933, “Pseudodeflectusin, a novel isochroman derivative from Aspergillus pseudodeflectus a parasite of the sea weed, Sargassum fusiform, as a selective human cancer cytotoxin” (Bioorg Med Chem Lett, 2004)

How the values were obtained:
Gamma-secretase = assay: Inhibition of human gamma-secretase activity; assay type: protein-complex assay
Mus musculus [1] = assay: Compound was tested for reduction in Abeta-protein levels in the CNS of Tg2576 beta-APP-swedish transgenic mice after oral administration; assay type: functional, Central nervous system
Mus musculus [2] = assay: Compound was tested for reduction in Abeta-protein levels in plasma of Tg2576 beta-APP-swedish transgenic mice at a single dose of 200 umol/kg; assay type: functional
Mus musculus [3] = assay: Compound was tested for reduction in Abeta-protein levels in brain after 3 hr in Tg2576 beta-APP-swedish transgenic mice at a single dose of 200 umol/kg; assay type: functional
Mus musculus [4] = assay: Compound was tested for reduction in plasma level of Tg2576 mice 3h after oral administration at 200 umol/kg; assay type: functional
Mus musculus [5] = assay: Compound was tested for reduction in brain Abeta-protein level of Tg2576 mice 3h after oral administration at 200 umol/kg; assay type: functional
Mus musculus [6] = assay: Compound was tested for reduction in Abeta-protein levels in brain of Tg2576 mice 3h after oral administration at 200 umol/kg; assay type: functional

Compound	IC50 (Gamma-secretase) [nM]	further results
CC(C)N1C(=O)c2ccccc2C(NC(=O)[C@H](C)NC(=O)CC2CCCCC2)C(=O)N1C (stereo not given in full)	150	–
CC(C)N1C(=O)c2ccccc2C(NC(=O)[C@H](C)NC(=O)Cc2cccc(F)c2)C(=O)N1C (stereo not given in full)	57	–
CC(C)C[C@H](NC(=O)[C@@H](O)c1ccccc1)C(=O)N[C@H]1c2ccccc2C[C@H]1O	71	–
CC(C)C[C@H](NC(=O)Cc1ccsc1)C(=O)NC1C(=O)N(C)N(C(C)C)C(=O)c2ccccc21 (stereo not given in full)	4	–
CC(C)N1C(=O)c2ccccc2C(NC(=O)[C@H](C)NC(=O)Cc2cc(F)cc(F)c2)C(=O)N1C (stereo not given in full)	47	–
CC(C)C[C@H](NC(=O)Cc1cc(F)cc(F)c1)C(=O)Nc1cnc(-c2ccccc2)n(C)c1=O	720	–
CCCCN(C)C(=O)[C@H](CC1CCCCC1)NC(=O)[C@H](CC(C)C)NC(=O)Cc1cc(F)cc(F)c1	6	–
CC(C)N1C(=O)c2ccccc2C(NC(=O)[C@H](C)NC(=O)Cc2ccoc2)C(=O)N1C (stereo not given in full)	38	–
CC(C)N1C(=O)c2ccccc2C(NC(=O)[C@H](C)NC(=O)Cc2ccncc2)C(=O)N1C (stereo not given in full)	> 2500	–
CC(C)[C@H](NC(=O)Cc1cc(F)cc(F)c1)C(=O)NC1C(=O)N(C)N(C(C)C)C(=O)c2ccccc21 (stereo not given in full)	190	–
COc1cc(CC(=O)N[C@@H](C)C(=O)NC2C(=O)N(C)N(C(C)C)C(=O)c3ccccc32)cc(OC)c1 (stereo not given in full)	> 2500	–
CC(C)N1C(=O)c2ccccc2C(NC(=O)[C@H](C)NC(=O)Cc2cccc3ccccc23)C(=O)N1C (stereo not given in full)	> 2500	–
CC(C)N1C(=O)c2ccccc2C(NC(=O)[C@H](C)NC(=O)[C@@H](O)c2cc(F)cc(F)c2)C(=O)N1C (stereo not given in full)	5	–
CC(C)N1C(=O)c2ccccc2C(NC(=O)[C@H](C)NC(=O)Cc2ccccc2)C(=O)N1C (stereo not given in full)	140	–
CC(C)C[C@H](NC(=O)Cc1cc(F)cc(F)c1)C(=O)NC1C(=O)N(C)N(C(C)C)C(=O)c2ccccc21 (stereo not given in full)	37	–
CCCCN(C)C(=O)[C@H](CC1CCCCC1)NC(=O)[C@H](CC(C)C)NC(=O)[C@@H](O)c1ccccc1	1	Reduction (Mus musculus [1]): 15%; Activity (Mus musculus [2]): 1833 nM; Activity (Mus musculus [3]): 65 nM
CC(C)N1C(=O)c2ccccc2C(NC(=O)[C@H](C)NC(=O)Cc2ccsc2)C(=O)N1C (stereo not given in full)	14	–
CC(C)N1C(=O)c2ccccc2C(NC(=O)[C@H](C)NC(=O)Cc2cccnc2)C(=O)N1C (stereo not given in full)	> 2500	–
CC(C)N1C(=O)c2ccccc2C(NC(=O)[C@H](C)NC(=O)Cc2ccco2)C(=O)N1C (stereo not given in full)	86	–
CC(C)N1C(=O)c2ccccc2C(NC(=O)[C@H](C)NC(=O)Cc2cc(C(F)(F)F)cc(C(F)(F)F)c2)C(=O)N1C (stereo not given in full)	> 2500	–
CC(C)C[C@H](NC(=O)Cc1cc(F)cc(F)c1)C(=O)NC1C(=O)N(C)C(c2ccccc2)=NC1(C)C (stereo not given in full)	1500	–
C[C@H](NC(=O)Cc1cc(F)cc(F)c1)C(=O)NC1N=C(c2ccccc2)c2ccccc2N(C)C1=O (stereo not given in full)	210	–
C[C@H](NC(=O)Cc1cc(F)cc(F)c1)C(=O)NC1C(=O)N(C)c2ccccc2-c2ccccc21 (stereo not given in full)	76	–
C[C@H](NC(=O)Cc1cc(F)cc(F)c1)C(=O)NC1C(=O)N(C)N(C)C(=O)c2ccccc21 (stereo not given in full)	5	Activity (Mus musculus [4]): 2987 nM; Activity (Mus musculus [5]): 77 nM; Reduction (Mus musculus [6]): 43%
